According to ChEMBL document CHEMBL3865850, “Discovery of Potent and Selective Leads against Toxoplasma gondii Dihydrofolate Reductase via Structure-Based Design” (ACS Med Chem Lett, 2016):

How the values were obtained:
[1] = Selectivity ratio of IC50 for human DHFR to IC50 for Toxoplasma gondii DHFR
[2] = biological target: T1, Bifunctional dihydrofolate reductase-thymidylate synthase (Toxoplasma gondii, UniProt Q07422); experiment: Inhibition of Toxoplasma gondii TS-DHFR expressed in Escherichia coli BL21 preincubated for 15 mins followed by addition of DHF as substrate and NADPH measured after 60 mins by resazurin/diaphorase coupled assay; assay type: cell-free
T1 sequence (Q07422 whole entry): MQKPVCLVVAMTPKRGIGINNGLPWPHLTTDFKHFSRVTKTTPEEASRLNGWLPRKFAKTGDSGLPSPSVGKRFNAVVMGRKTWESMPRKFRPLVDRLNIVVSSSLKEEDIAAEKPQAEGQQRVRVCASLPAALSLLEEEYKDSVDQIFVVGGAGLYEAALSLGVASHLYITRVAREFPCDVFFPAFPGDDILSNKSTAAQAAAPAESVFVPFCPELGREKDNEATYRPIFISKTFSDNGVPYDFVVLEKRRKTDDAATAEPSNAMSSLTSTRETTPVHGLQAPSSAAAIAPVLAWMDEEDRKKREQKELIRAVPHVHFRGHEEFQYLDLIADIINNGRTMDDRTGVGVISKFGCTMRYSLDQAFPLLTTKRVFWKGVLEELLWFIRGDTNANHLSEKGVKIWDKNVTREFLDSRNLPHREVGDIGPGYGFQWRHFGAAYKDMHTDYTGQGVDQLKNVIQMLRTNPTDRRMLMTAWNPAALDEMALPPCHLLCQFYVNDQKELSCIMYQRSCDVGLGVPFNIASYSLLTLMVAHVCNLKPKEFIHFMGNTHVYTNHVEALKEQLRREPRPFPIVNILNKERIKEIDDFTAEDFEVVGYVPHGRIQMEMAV

[3] = biological target: T2, Dihydrofolate reductase (Homo sapiens, UniProt P00374); experiment: Inhibition of recombinant human DHFR expressed in Escherichia coli preincubated for 15 mins followed by addition of DHF as substrate and NADPH measured after 60 mins by resazurin/diaphorase coupled assay
T2 sequence (P00374 whole entry): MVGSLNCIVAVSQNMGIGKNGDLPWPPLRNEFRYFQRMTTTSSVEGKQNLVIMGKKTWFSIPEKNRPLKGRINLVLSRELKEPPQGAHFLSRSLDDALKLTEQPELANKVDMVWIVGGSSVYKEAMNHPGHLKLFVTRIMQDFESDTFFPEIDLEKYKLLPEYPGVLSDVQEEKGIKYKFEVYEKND

Row | Structure (SMILES) | Ratio IC50 [1] | IC50 [2] | IC50 [3]
1 | Nc1ncc(Cn2cc(-c3cccc(C(F)(F)F)c3)c3ccccc32)c(N)n1 | > 10 | 0.98 µM | > 10 µM
2 | Nc1ncc(CN2CCCN(C(=O)c3cccc(C(F)(F)F)c3)CC2)c(N)n1 | – | > 10 µM | > 10 µM
3 | Cc1nc(N)nc(N)c1C(=O)N1CCN(c2cc(Cl)ccc2-c2ccccn2)CC1 | – | > 10 µM | > 10 µM
4 | Nc1nc(Cl)c2cc(-c3cccc(Cl)c3)[nH]c2n1 | < 1 | > 10 µM | 4.2 µM
5 | Cn1c(-c2cccc(Cl)c2)cc2c(N)nc(N)nc21 | – | > 10 µM | > 10 µM
6 | Nc1nc(N)c(-c2c[nH]c3ccccc23)c(C2CC2)n1 | 2.9 | 0.91 µM | 2.5 µM
7 | Cc1nc(N)nc(N)c1C(=O)N1CCN(c2cccc(-c3ccccc3)c2)CC1 | > 4 | 2.4 µM | > 10 µM
8 | Cc1nc(N)nc(N)c1C(=O)N1CCN(c2cccc(-c3cccc(C#N)c3)c2)CC1 | > 3.3 | 3 µM | > 10 µM
9 | Nc1ncc(CN2CCN(c3cccc(C(F)(F)F)c3)CC2)c(N)n1 | 0.12 | 80 µM | 9.2 µM
10 | COc1ccc(-c2c[nH]c3nc(N)nc(OC(C)C)c23)cc1C(F)(F)F | – | > 10 µM | > 10 µM
11 | Cc1nc(N)nc(N)c1CN1CCN(c2cccc(-c3cccc(C#N)c3)c2)CC1 | 4.7 | 0.2 µM | 0.92 µM
12 | Cn1c(-c2cccc(Cl)c2)cc2c(Cl)nc(N)nc21 | – | > 10 µM | > 10 µM
13 | Nc1nc2[nH]c(-c3cccc(Cl)c3)cc2c(=O)[nH]1 | – | > 10 µM | > 10 µM
14 | Cn1cc(-c2c(N)nc(N)nc2C2CC2)c2ccccc21 | 6.1 | 0.46 µM | 2.8 µM
15 | Nc1ncc(Cn2cc(-c3cccc(Cl)c3)c3cccnc32)c(N)n1 | – | > 10 µM | > 10 µM
16 | Cc1nc(N)nc(N)c1CN1CCN(c2cc(Cl)ccc2-c2ccccn2)CC1 | 6.5 | 0.37 µM | 2.1 µM
17 | Cc1nc(N)nc(N)c1CN1CCN(c2cccc(-c3ccccc3)c2)CC1 | 1 | 1.1 µM | 1.1 µM
18 | Nc1ncc(Cn2ccc3c(-c4ccc(C(F)(F)F)cc4)cccc32)c(N)n1 | > 3.5 | 2.7 µM | > 10 µM
19 | Nc1ncc(CN2CCN(c3cc(Cl)ccc3OCc3cccc(C(F)(F)F)c3)CC2)c(N)n1 | > 80 | 0.95 µM | > 75 µM
20 | Nc1ncc(N2CCN(c3ccc(Cl)c(Cl)c3)CC2)c(N)n1 | 10 | 0.017 µM | 0.092 µM
21 | Nc1ncc(Cn2cc(-c3ccc(F)c(F)c3)c3cnccc32)c(N)n1 | – | > 10 µM | > 10 µM
